Data: patent publication US20240148821A1, “PHARMACEUTICAL USE OF CYCLIC PEPTIDE COMPOUND” (CHUGAI SEIYAKU KABUSHIKI KAISHA, priority 2021, published 2024)
Numbered stars: 1 amine (or outer) side, 2 acyl side, 3 side chain; on linkers, the order of the positions; unused ones are H or OH. Bridge positions count the residues as written; N and C are the ends. Square brackets hold non-standard residues; d marks the D form. Peptide text beside a SMILES is read from it. * marks the point of attachment. hPhe(3,5-F2-4-CF3) = N[C@@H](CCc1cc(F)c(C(F)(F)F)c(F)c1)C(=O)O; hPhe(3-Cl-4-CF3) = N[C@@H](CCc1ccc(C(F)(F)F)c(Cl)c1)C(=O)O; hPhe(3-F,4-CF3) = N[C@@H](CCc1ccc(C(F)(F)F)c(F)c1)C(=O)O; NEtPhe(4-CF3) = CCN[C@@H](Cc1ccc(C(F)(F)F)cc1)C(=O)O; hPhe(4-CF3) = N[C@@H](CCc1ccc(C(F)(F)F)cc1)C(=O)O; NEtPhe(4-Me) = CCN[C@@H](Cc1ccc(C)cc1)C(=O)O; NMePhe(4-Cl) = CN[C@@H](Cc1ccc(Cl)cc1)C(=O)O; NMePhe(4-Me) = CN[C@@H](Cc1ccc(C)cc1)C(=O)O; NMeNle(6-CHF2) = CN[C@@H](CCCCC(F)F)C(=O)O; NMedβ3hAla = C[C@H](CC(=O)[*:2])N(C)[*:1]; NMeGly(cPent) = CN[C@H](C(=O)O)C1CCCC1; X26 = CC(C)=CC[C@H](N[*:1])C(=O)[*:2]; NMeCha = CN[C@@H](CC1CCCCC1)C(=O)O; Hyp = O=C(O)[C@@H]1C[C@@H](O)CN1; NMeChg = CN[C@H](C(=O)O)C1CCCCC1; NMeI = CC[C@H](C)[C@H](NC)C(=O)O; NMeD = CN[C@@H](CC(=O)O)C(=O)O; AllylGly = C=CC[C@H](N)C(=O)O; CH2CONHtBu = CC(C)(C)NC(=O)C*; NMeL = CN[C@@H](CC(C)C)C(=O)O; NMeNle = CCCC[C@H](NC)C(=O)O; NMePra = C#CC[C@H](NC)C(=O)O; NMeV = CN[C@H](C(=O)O)C(C)C; d(β3hA) = C[C@@H](N)CC(=O)O; NMeS = CN[C@@H](CO)C(=O)O; Pip = O=C(O)[C@@H]1CCCCN1; NMeA = CN[C@@H](C)C(=O)O; NMeAib = CNC(C)(C)C(=O)O; Nle = CCCC[C@H](N)C(=O)O; Piperidide = C1CCN(*)CC1; Pyrrolidide = C1CCN(*)C1; Ac5c = NC1(C(=O)O)CCCC1; Aze = O=C(O)[C@@H]1CCN1; Ac4c = NC1(C(=O)O)CCC1; Aib = CC(C)(N)C(=O)O; Sar = CNCC(=O)O; OAll = C=CCO*

Tests used:
[1] = tested on: Human pancreatic cancer cell line AsPC-1 (G12D mutation Kras); experiment: AsPC-1 cell growth inhibition (AsPC-1 CGI); assay type: cell-based; conditions: read-out: AsPC-1 cell growth inhibition, 50% growth inhibitory concentration (IC50 value); 96 hours, CellTiter-Glo, values classified in ranges
Experimental: Test compounds were serially dilated with dimethyl sulfoxide, and 200 nL was then dispensed to a U-bottom 96-well plate using Labcyte Echo. […] The cell suspension was dispensed to a. plate containing a test compound at 100 μL per well and incubated at 37° C. in a 5% carbon dioxide gas incubator. 96 hours later, 80 μL of CellTiter-Glo (Promega) was added to each well and fluorescence was measured.

[2] = target: protein-protein interaction between Kras and SOS1 (biotin-tagged human Kras loaded with GDP, His-tagged human SOS1) (Homo sapiens (Human), UniProt P01116, G12D); experiment: Protein-protein interaction inhibition between Kras and SOS1 (KrasG12D-SOS PPI) using AlphaScreen; assay type: biochemical; conditions: AlphaScreen; biotin-tagged human Kras loaded with GDP, His-tagged human SOS1; read-out: KRAS G12D-SOS PPI IC50;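 note: kras produced in E. coli, Ni-coupled donor beads and streptavidin acceptor beads, excitation 680 nm with emission detected at 520–620 nm via singlet oxygen transfer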

SMILES | IC50 [1] [µM] | IC50 [2] [µM]
CC[C@H](C)[C@@H]1NC(=O)[C@H](CC(C)C)N(C)C(=O)C[C@@H](C(=O)N2CCCCC2)N(C)C(=O)[C@H](C2CCCCC2)N(C)C(=O)C2(CCCC2)NC(=O)[C@H](COCC(=O)NC(C)(C)C)N(C)C(=O)[C@H](CCc2ccc(C(F)(F)F)c(Cl)c2)NC(=O)CN(C)C(=O)[C@H](CC2CCCCC2)N(C)C(=O)CN(C)C(=O)CN(C)C1=O [Compound 727] ([NMeL]I[Sar][Sar][NMeCha][Sar][hPhe(3-Cl-4-CF3)][NMeS](CH2CONHtBu)[Ac5c][NMeChg][NMeD]-Piperidide; lactam N-11) | > 0.5 | 0.0069
CC(C)=CC[C@@H]1NC(=O)[C@H](CC(C)C)N(C)C(=O)C[C@@H](C(=O)N2CCCCC2)N(C)C(=O)[C@H](C(C)C)N(C)C(=O)C2(CCCC2)NC(=O)[C@@H]2CCCN2C(=O)[C@H](CCc2ccc(C(F)(F)F)c(Cl)c2)NC(=O)CN(C)C(=O)[C@H](CC2CCCCC2)N(C)C(=O)[C@@H]2CCN2C(=O)[C@H](C)N(C)C1=O [Compound 729] ([NMeL][X26][NMeA][Aze][NMeCha][Sar][hPhe(3-Cl-4-CF3)]P[Ac5c][NMeV][NMeD]-Piperidide; lactam N-11) | > 0.5 | 0.043
CCCC[C@H]1C(=O)NC2(CCCC2)C(=O)N(C)[C@@H](C2CCCCC2)C(=O)N(C)[C@H](C(=O)N2CCCCC2)CC(=O)N(C)[C@@H](CC(C)C)C(=O)N[C@@H]([C@@H](C)CC)C(=O)N(C)CC(=O)N(C)CC(=O)N(C)[C@@H](CC2CCCCC2)C(=O)N(C)CC(=O)N[C@@H](CCc2ccc(C(F)(F)F)c(Cl)c2)C(=O)N1C [Compound 730] ([NMeL]I[Sar][Sar][NMeCha][Sar][hPhe(3-Cl-4-CF3)][NMeNle][Ac5c][NMeChg][NMeD]-Piperidide; lactam N-11) | > 0.5 | 0.012
CCO[C@@H]1C[C@H]2C(=O)NC3(CCC3)C(=O)N(C)[C@@H]([C@@H](C)CC)C(=O)N(C)[C@H](C)CC(=O)N(C)[C@@H](CC(C)C)C(=O)N[C@@H]([C@@H](C)CC)C(=O)N(C)[C@@H](C)C(=O)N3CC[C@H]3C(=O)N(CC)[C@@H](Cc3ccc(C(F)(F)F)cc3)C(=O)N(C)CC(=O)N[C@@H](CCc3cc(F)c(C(F)(F)F)c(F)c3)C(=O)N2C1 [Compound 731] (cyclo([Ac4c][NMeI][NMedβ3hAla][NMeL]I[NMeA][Aze][NEtPhe(4-CF3)][Sar][hPhe(3,5-F2-4-CF3)][Hyp](Et))) | ≤ 0.02 | 0.0035
CC[C@H](C)[C@@H]1NC(=O)[C@H](CC(C)C)N(C)C(=O)C[C@@H](C(=O)N2CCCCC2)N(C)C(=O)[C@H](C(C)C)N(C)C(=O)[C@H](C(C)C)NC(=O)[C@@H]2CCCN2C(=O)[C@H](CCc2ccc(C(F)(F)F)c(Cl)c2)NC(=O)CN(C)C(=O)[C@H](CC2CCCCC2)N(C)C(=O)[C@@H]2CCN2C(=O)[C@H](C)N(C)C1=O [Compound 741] ([NMeL]I[NMeA][Aze][NMeCha][Sar][hPhe(3-Cl-4-CF3)]PV[NMeV][NMeD]-Piperidide; lactam N-11) | > 0.5 | 0.086
C=CC[C@@H]1NC(=O)[C@H](CC(C)C)N(C)C(=O)C[C@@H](C(=O)N2CCCCC2)N(C)C(=O)[C@H](C(C)C)N(C)C(=O)C2(CCCC2)NC(=O)[C@@H]2CCCN2C(=O)[C@H](CCc2ccc(C(F)(F)F)c(Cl)c2)NC(=O)CN(C)C(=O)[C@H](CC2CCCCC2)N(C)C(=O)[C@@H]2CCN2C(=O)[C@H](C)N(C)C1=O [Compound 745] ([NMeL][AllylGly][NMeA][Aze][NMeCha][Sar][hPhe(3-Cl-4-CF3)]P[Ac5c][NMeV][NMeD]-Piperidide; lactam N-11) | > 0.5 | 0.029
CCCC[C@@H]1NC(=O)[C@H](CCc2ccc(C(F)(F)F)c(Cl)c2)NC(=O)CN(C)C(=O)[C@H](CC2CCCCC2)N(C)C(=O)[C@@H]2CCN2C(=O)CN(C)C(=O)[C@H]([C@@H](C)CC)NC(=O)[C@@H]2CCCCN2C(=O)C[C@@H](C(=O)N2CCCCC2)N(C)C(=O)[C@H](CC(C)C)NC(=O)C(C)(C)N(C)C1=O [Compound 760] ([Pip]I[Sar][Aze][NMeCha][Sar][hPhe(3-Cl-4-CF3)][Nle][NMeAib]L[NMeD]-Piperidide; lactam N-11) | > 0.5 | 0.0052
C#CC[C@H]1C(=O)N(C)[C@H](C(=O)N2CCCCC2)CC(=O)N(C)[C@@H](CC(C)C)C(=O)N[C@@H]([C@@H](C)CC)C(=O)N(C)[C@@H](C)C(=O)N2CC[C@H]2C(=O)N(C)[C@@H](CC2CCCCC2)C(=O)N(C)CC(=O)N[C@@H](CCc2ccc(C(F)(F)F)c(Cl)c2)C(=O)N2CCC[C@H]2C(=O)NC2(CCCC2)C(=O)N1C [Compound 766] ([NMeL]I[NMeA][Aze][NMeCha][Sar][hPhe(3-Cl-4-CF3)]P[Ac5c][NMePra][NMeD]-Piperidide; lactam N-11) | > 0.5 | 0.13
CC[C@H](C)[C@@H]1NC(=O)[C@H](C(C)C)N(C)C(=O)C[C@@H](C(=O)N2CCCC2)NC(=O)[C@H](CC(C)C)N(C)C(=O)C2(CCCC2)NC(=O)[C@H](CC(C)C)N(C)C(=O)[C@H](CCc2ccc(C(F)(F)F)cc2)NC(=O)CN(C)C(=O)[C@H](Cc2ccc(Cl)cc2)N(C)C(=O)CN(C)C(=O)CN(C)C1=O [Compound 769] ([NMeV]I[Sar][Sar][NMePhe(4-Cl)][Sar][hPhe(4-CF3)][NMeL][Ac5c][NMeL]D-Pyrrolidide; lactam N-11) | > 0.5 | 0.052
CCO[C@@H]1C[C@H]2C(=O)NC3(CCCC3)C(=O)N(C)[C@@H](C3CCCC3)C(=O)N(C)[C@H](C)CC(=O)N(C)[C@@H](CC(C)C)C(=O)N[C@@H]([C@@H](C)CC)C(=O)N(C)[C@@H](C)C(=O)N3CC[C@H]3C(=O)N(CC)[C@@H](Cc3ccc(C)cc3)C(=O)N(C)CC(=O)N[C@@H](CCc3ccc(C(F)(F)F)c(Cl)c3)C(=O)N2C1 [Compound 775] (cyclo([Ac5c][NMeGly(cPent)][NMedβ3hAla][NMeL]I[NMeA][Aze][NEtPhe(4-Me)][Sar][hPhe(3-Cl-4-CF3)][Hyp](Et))) | ≤ 0.02 | 0.0046
CC[C@H](C)[C@@H]1NC(=O)[C@H](CC(C)C)N(C)C(=O)C[C@@H](C(=O)N(C)C)N(C)C(=O)[C@H]([C@@H](C)CC)N(C)C(=O)[C@H](C(C)C)NC(=O)[C@@H]2CCCN2C(=O)[C@H](CCc2ccc(C(F)(F)F)c(Cl)c2)NC(=O)CN(C)C(=O)[C@H](Cc2ccc(C)cc2)N(C)C(=O)[C@@H]2CCN2C(=O)[C@H](C)N(C)C1=O [Compound 784] ([NMeL]I[NMeA][Aze][NMePhe(4-Me)][Sar][hPhe(3-Cl-4-CF3)]PV[NMeI][NMeD]-NMe2; lactam N-11) | > 0.5 | 0.004
CC[C@H](C)[C@@H]1NC(=O)[C@H](C)N(C)C(=O)C[C@@H](C)NC(=O)[C@H](CC(C)C)N(C)C(=O)C(C)(C)NC(=O)[C@H](CC(C)C)N(C)C(=O)[C@H](CCc2ccc(C(F)(F)F)cc2)NC(=O)CN(C)C(=O)[C@H](Cc2ccc(Cl)cc2)N(C)C(=O)CN(C)C(=O)CN(C)C1=O [Compound 788] (cyclo([Aib][NMeL][d(β3hA)][NMeA]I[Sar][Sar][NMePhe(4-Cl)][Sar][hPhe(4-CF3)][NMeL])) | > 0.5 | 0.013
C=CCOC(=O)C[C@H]1C(=O)NC2(CCCC2)C(=O)N(C)[C@@H](C(C)C)C(=O)N(C)[C@H](C(=O)N2CCCCC2)CC(=O)N(C)[C@@H](C)C(=O)N[C@@H]([C@@H](C)CC)C(=O)N(C)CC(=O)N(C)CC(=O)N(C)[C@@H](CC2CCCCC2)C(=O)N(C)CC(=O)N[C@@H](CCc2ccc(C(F)(F)F)c(Cl)c2)C(=O)N1C [Compound 792] ([NMeA]I[Sar][Sar][NMeCha][Sar][hPhe(3-Cl-4-CF3)][NMeD](OAll)[Ac5c][NMeV][NMeD]-Piperidide; lactam N-11) | > 0.5 | 0.0035
CC[C@H](C)[C@@H]1NC(=O)[C@H](CC(C)C)N(C)C(=O)C[C@@H](C(=O)N2CCCCC2)N(C)C(=O)[C@H](C2CCCCC2)N(C)C(=O)C2(CCCC2)NC(=O)[C@H](CCCCC(F)F)N(C)C(=O)[C@H](CCc2ccc(C(F)(F)F)c(Cl)c2)NC(=O)CN(C)C(=O)[C@H](CC2CCCCC2)N(C)C(=O)CN(C)C(=O)CN(C)C1=O [Compound 796] ([NMeL]I[Sar][Sar][NMeCha][Sar][hPhe(3-Cl-4-CF3)][NMeNle(6-CHF2)][Ac5c][NMeChg][NMeD]-Piperidide; lactam N-11) | > 0.5 | 0.0093
CC[C@H](C)[C@@H]1NC(=O)[C@H](CC(C)C)N(C)C(=O)C[C@@H](C)N(C)C(=O)[C@H](CC(C)C)NC(=O)C(C)(C)N(C)C(=O)[C@H](CC(C)C)NC(=O)[C@H](CCc2ccc(C(F)(F)F)c(F)c2)NC(=O)CN(C)C(=O)[C@H](Cc2ccc(Cl)cc2)N(C)C(=O)CN(C)C(=O)CN(C)C1=O [Compound 797] (cyclo(I[Sar][Sar][NMePhe(4-Cl)][Sar][hPhe(3-F,4-CF3)]L[NMeAib]L[NMedβ3hAla][NMeL])) | > 0.5 | 0.019
CC[C@H](C)[C@@H]1NC(=O)[C@H](CC(C)C)N(C)C(=O)C[C@@H](C(=O)N2CCCC2)N(C)C(=O)[C@H]([C@@H](C)CC)N(C)C(=O)C2(CCCC2)NC(=O)[C@@H]2CCCN2C(=O)[C@H](CCc2ccc(C(F)(F)F)c(Cl)c2)NC(=O)CN(C)C(=O)[C@H](C2CCCC2)N(C)C(=O)[C@@H]2CCN2C(=O)[C@H](C)N(C)C1=O [Compound 799] ([NMeL]I[NMeA][Aze][NMeGly(cPent)][Sar][hPhe(3-Cl-4-CF3)]P[Ac5c][NMeI][NMeD]-Pyrrolidide; lactam N-11) | ≤ 0.02 | 0.0014
